The values below come from article PMC3618943, “Interaction of Natural Dietary and Herbal Anionic Compounds and Flavonoids with Human Organic Anion Transporters 1 (SLC22A6), 3 (SLC22A8), and 4 (SLC22A11)” (Evidence-based Complementary and Alternative Medicine : eCAM, 2013).

“Also recorded” adds a separate entry of the source. Read-outs that look alike come from different tables or passages of the source. A value given as a limit tells only on which side of the number the result lay.

Data set [1] addresses T1, hOAT3 (SLC22A8) (Homo sapiens, UniProt Q8TCC7).
T1 construct: expressed in transfected cells
T1 sequence (Q8TCC7 1-542): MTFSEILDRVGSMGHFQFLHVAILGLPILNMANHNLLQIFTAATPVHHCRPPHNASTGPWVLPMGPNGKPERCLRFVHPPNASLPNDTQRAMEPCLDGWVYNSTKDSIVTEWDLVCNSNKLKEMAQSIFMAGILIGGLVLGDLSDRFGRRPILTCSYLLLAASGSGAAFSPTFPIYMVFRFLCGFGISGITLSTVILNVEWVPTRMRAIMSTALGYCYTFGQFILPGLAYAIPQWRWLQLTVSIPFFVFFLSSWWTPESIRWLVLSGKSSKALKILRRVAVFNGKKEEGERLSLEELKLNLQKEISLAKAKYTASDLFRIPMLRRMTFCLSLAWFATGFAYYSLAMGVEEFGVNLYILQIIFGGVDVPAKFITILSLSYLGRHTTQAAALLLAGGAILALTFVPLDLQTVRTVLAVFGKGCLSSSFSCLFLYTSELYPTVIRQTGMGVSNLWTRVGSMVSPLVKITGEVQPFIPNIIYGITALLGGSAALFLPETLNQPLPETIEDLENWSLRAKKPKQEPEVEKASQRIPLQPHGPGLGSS
In words: Inhibition of hOAT3-mediated [3H]ES uptake, cell accumulation assay in HEK-hOAT3 cells. In kind it is cell-based. The settings on record: 10 min uptake; for inhibition at 50 µM / effect on hOAT3-mediated ES uptake (in words): 50 μM test compound; for inhibition at 50 µM: 1 μM [3H]ES (50-fold excess). How it is done:
(§1) Derivation and culture of stably transfected Chinese hamster ovary (CHO) cells expressing hOAT1 (CHO-hOAT1) and hOAT4 (CHO-hOAT4), stably transfected human embryonic kidney 293 (HEK) cells expressing hOAT3 (HEK-hOAT3), and their corresponding empty vector transfected background control cell lines, have been described previously.
(§2) The cell accumulation assay protocol was performed as described in our recent publications with minor modifications. In brief, 2 × 10^5 cells/well were seeded in 24-well tissue culture plates and grown in the absence of antibiotics for two days. For transport experiments cells were preincubated in transport buffer without substrates or inhibitors for 10 min after which time the buffer was replaced with 400 μL of fresh transport buffer containing 1 μM [^3H]PAH (0.5 μCi/mL) or [^3H]ES (0.25 μCi/mL) with or without test compounds. After incubation for times specified in the figure legends, cellular uptake was quenched by quickly rinsing each well three times with fresh ice-cold transport buffer. Cells were lysed with 1 M NaOH and radioactivity was measured with a liquid scintillation counter and reported as picomoles of substrate per milligram total protein. All intracellular uptake data were corrected for background accumulation in corresponding empty vector transfected control cells. Kinetic calculations were performed using GraphPad Prism Software version 5.0 (GraphPad Software Inc., San Diego, CA). The half maximal inhibitory concentrations (IC50) and inhibitory constants (K i) were calculated using nonlinear regression with the appropriate models. Results were confirmed by repeating all experiments at least three times with triplicate wells for each data point. […]
Figure 4 Inhibitory effects of the nine test compounds on hOAT3-mediated ES uptake. Ten-minute uptake of [^3H]ES (1 μM) was measured in HEK-hOAT3 cells in the absence and presence of test compounds (50 μM) or probenecid (1000 μM). Data represent hOAT3-mediated transport specifically, that is, data have been corrected for background ES accumulation measured in empty vector transfected cells. Values are mean ± S.D. of triplicate values from a representative experiment. * denotes P < 0.05, ** denotes P < 0.01, and *** denotes p < 0.001 as determined by one-way ANOVA followed by Dunnett's t-test.

The target of data set [2] is T2, hOAT1 (SLC22A6) (Homo sapiens, UniProt Q4U2R8).
T2 construct: expressed in transfected cells
T2 sequence (Q4U2R8 1-550 isoform Q4U2R8-2): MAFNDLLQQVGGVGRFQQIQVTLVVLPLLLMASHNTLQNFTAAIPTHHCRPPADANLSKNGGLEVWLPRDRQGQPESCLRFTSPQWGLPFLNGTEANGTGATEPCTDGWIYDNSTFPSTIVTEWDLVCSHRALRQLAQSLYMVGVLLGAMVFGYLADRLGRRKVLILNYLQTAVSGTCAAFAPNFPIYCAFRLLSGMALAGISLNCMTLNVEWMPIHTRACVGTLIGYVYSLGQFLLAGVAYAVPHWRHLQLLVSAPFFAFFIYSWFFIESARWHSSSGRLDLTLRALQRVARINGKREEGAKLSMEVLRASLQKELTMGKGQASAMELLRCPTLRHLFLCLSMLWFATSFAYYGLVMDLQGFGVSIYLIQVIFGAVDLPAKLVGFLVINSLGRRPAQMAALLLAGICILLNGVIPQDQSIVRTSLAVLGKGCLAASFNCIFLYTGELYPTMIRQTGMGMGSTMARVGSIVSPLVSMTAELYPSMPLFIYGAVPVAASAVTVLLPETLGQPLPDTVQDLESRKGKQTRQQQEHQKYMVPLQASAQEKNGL
In words: Inhibition of hOAT1-mediated [3H]PAH uptake, cell accumulation assay in CHO-hOAT1 cells. In kind it is cell-based. To be noted: 50 μM test compound, 10 min uptake; for effect on hOAT1-mediated PAH uptake (in words): 1 μM [3H]PAH. On the procedure: The cell accumulation assay protocol was performed as described in our recent publications with minor modifications. In brief, 2 × 10^5 cells/well were seeded in 24-well tissue culture plates and grown in the absence of antibiotics for two days. For transport experiments cells were preincubated in transport buffer without substrates or inhibitors for 10 min after which time the buffer was replaced with 400 μL of fresh transport buffer containing 1 μM [^3H]PAH (0.5 μCi/mL) or [^3H]ES (0.25 μCi/mL) with or without test compounds. After incubation for times specified in the figure legends, cellular uptake was quenched by quickly rinsing each well three times with fresh ice-cold transport buffer. Cells were lysed with 1 M NaOH and radioactivity was measured with a liquid scintillation counter and reported as picomoles of substrate per milligram total protein. All intracellular uptake data were corrected for background accumulation in corresponding empty vector transfected control cells. Kinetic calculations were performed using GraphPad Prism Software version 5.0 (GraphPad Software Inc., San Diego, CA). The half maximal inhibitory concentrations (IC50) and inhibitory constants (K i) were calculated using nonlinear regression with the appropriate models. Results were confirmed by repeating all experiments at least three times with triplicate wells for each data point.
Ten-minute uptake of [^3H]PAH (1 μM) was measured in CHO-hOAT1 cells in the absence and presence of test compounds (50 μM) or probenecid (1000 μM). Data represent hOAT1-mediated transport specifically, that is, data have been corrected for background PAH accumulation measured in empty vector transfected cells. Values are mean ± S.D. of triplicate values from a representative experiment. ** denotes P < 0.01, and *** denotes P < 0.001 as determined by one-way ANOVA followed by Dunnett's t-test.
One-minute uptake of [^3H]PAH (1 μM) in CHO-hOAT1 cells was measured in the presence of increasing concentrations (10^−7 to 5 × 10^−4 M) of test compounds. Data were corrected by subtracting background PAH accumulation measured in empty vector transfected cells. IC50 values were determined with nonlinear regression and the “log(inhibitor) versus response” model using GraphPad Prism software. Experiments were repeated three times with triplicate samples and graphs shown are from representative experiments with values plotted as mean ± S.D. (n = 3). The data were used to generate mean IC50 ± S.E.M. estimates.

Data set [3] addresses T3, hOAT4 (SLC22A11) (Homo sapiens, UniProt Q9NSA0).
T3 construct: expressed in transfected cells
T3 sequence (Q9NSA0 1-550): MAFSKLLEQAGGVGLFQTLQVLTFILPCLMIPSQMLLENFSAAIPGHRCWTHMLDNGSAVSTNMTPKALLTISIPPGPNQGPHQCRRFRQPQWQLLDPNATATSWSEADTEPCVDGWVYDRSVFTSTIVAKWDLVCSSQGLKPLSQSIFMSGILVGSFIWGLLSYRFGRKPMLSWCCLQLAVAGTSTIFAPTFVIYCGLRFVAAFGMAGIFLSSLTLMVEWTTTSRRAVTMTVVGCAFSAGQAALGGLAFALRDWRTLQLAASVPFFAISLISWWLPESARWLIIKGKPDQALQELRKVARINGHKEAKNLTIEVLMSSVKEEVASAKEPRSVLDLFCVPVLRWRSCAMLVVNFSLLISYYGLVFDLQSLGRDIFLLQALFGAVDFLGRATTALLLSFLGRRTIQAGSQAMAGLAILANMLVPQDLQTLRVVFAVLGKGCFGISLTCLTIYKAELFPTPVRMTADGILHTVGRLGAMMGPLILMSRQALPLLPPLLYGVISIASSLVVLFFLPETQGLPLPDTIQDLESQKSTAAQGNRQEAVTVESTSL
In words: Inhibition of hOAT4-mediated [3H]ES uptake, cell accumulation assay in CHO-hOAT4 cells. In kind it is cell-based. On the procedure: as §1, §2
Figure 5 Inhibitory effects of the nine test compounds on hOAT4-mediated ES uptake. Ten minute uptake of [^3H]ES (1 μM) was measured in CHO-hOAT4 cells in the absence and presence of test compounds (50 μM) or ES (1000 μM for self-inhibition). Data represent hOAT4-mediated transport specifically, that is, data have been corrected for background ES accumulation measured in empty vector transfected cells. Values are mean ± S.D. of triplicate values from a representative experiment. * denotes P < 0.05, and *** denotes P < 0.001 as determined by one-way ANOVA followed by Dunnett's t-test.

For data set [4] the following is noted: human subjects, cited from earlier work.
The mark [5] stands for this setting: 50 μM test compound, 1 μM [3H]ES, 10 min uptake, CHO-hOAT4 cells.

In the case of `CCCN(CCC)S(=O)(=O)c1ccc(C(=O)O)cc1` [probenecid, reference compound], the inhibition at 1000 µM in data set [1] (probenecid 1000 μM, 1 μM [3H]ES) is above 96%.
As for `CCCCCCC=CCCCCCCCc1cccc(O)c1C(=O)O` [ginkgolic acid (15 : 1)], in data set [1], the inhibition at 50 µM lay within 30 to 35%.
For `Oc1cc(O)c2c(c1)O[C@H](c1ccc(O)c(O)c1)[C@@H](O)C2` [Catechin], the “effect on hOAT1-mediated PAH uptake (in words)” value in data set [2] is “no inhibition”. Moreover, the “effect on hOAT3-mediated ES uptake (in words)” value in data set [1] (1 μM [3H]ES) is given as “failed to produce significant inhibition”. For the same compound, the inhibition at 50 µM in data set [3] (setting [5]) amounted to 32%. Further, in data set [3] (inferred from level of inhibition at 50 μM, no kinetic study, read-out: IC50 on hOAT4 transport activity), the IC50 is above 50 µM.
Take `O=C(C=Cc1ccc(O)c(O)c1)OC1CC(OC(=O)C=Cc2ccc(O)c(O)c2)(C(=O)O)CC(O)C1O` (centres unmarked) [1,5-Dicaffeoylquinic acid, 1,5-dicaffeoylquinic acid]: the inhibition at 50 µM is 22% in data set [2] (1 μM [3H]PAH (50-fold excess)) and 30 to 35% in data set [1]. The “effect on hOAT4-mediated ES uptake (in words)” value in data set [3] (setting [5]) is “significant stimulation of ES uptake”. Also, the Cmax in data set [4] (oral, 600 mg) is 0.14 µM.
Take `C[C@H]1[C@H](C)CC[C@]2(C(=O)O)CC[C@]3(C)C(=CC[C@@H]4[C@@]5(C)CC[C@H](O)C(C)(C)[C@@H]5CC[C@]43C)[C@H]12` [Ursolic acid]: the “effect on hOAT1-mediated PAH uptake (in words)” value in data set [2] is “significant stimulation of uptake”. The “effect on hOAT3-mediated ES uptake (in words)” value in data set [1] (1 μM [3H]ES) was “failed to produce significant inhibition; also recorded: without effect”. Moreover, the “effect on hOAT4-mediated ES uptake (in words)” value in data set [3] (setting [5]) is recorded as “without effect”. For the same compound, in data set [4] (i.v., 186 mg), the Cmax was 7.4 µM.

What is called inhibition is how much of the control response was suppressed. Low readings indicate a weak effect, high ones a strong effect. For orientation: IC50 means the concentration needed to halve the response being measured. The Cmax is the maximum level reached in the sampled fluid or tissue.
